This is an account of results in patent publication EP4541815A1, “ANTIBODY AGAINST HEPATITIS B VIRUS, PREPARATION THEREOF AND USE THEREOF” (priority 2022, dated 2023).

The test concerns HBV D genotype. The experiment in a line: Antiviral activity in HBV-infected liver-humanized chimeric hFRG mouse model, plasma HBV DNA by qPCR. The conditions noted are these: hFRG mice. In kind it is in vivo. Here is the method:
To investigate the therapeutic efficacy of afuco-A14 GA LS against established HBV infection, the efficacy of afuco-A14 GA LS administered alone and in combination with entecavir, was evaluated in a liver-humanized chimeric hFRG (Fah^-/- Rag2^-/- /IL2rg^-/-) mouse model. Entecavir is a hepatitis B virus reverse transcriptase inhibitor that treats hepatitis B by inhibiting viral replication. The disadvantage of entecavir is the rebound of viral replication upon discontinuation of treatment.
A control group (saline), an afuco-A14 GA LS monotherapy group (10 mg/kg), an entecavir (ETV) monotherapy group (ETV, 0.1 mg/kg), and a combination therapy group of afuco-A14 GA LS (10 mg/kg) and entecavir (0.1 mg/kg) were set up in the experiment, respectively. Mice were administered (afuco-A14 GALS was administered subcutaneously and ETV was administered orally) starting on day 28 (D28) post HBV infection (HBV D genotype, 2 × 10^9 GE/mouse). Thereafter, afuco-A14 GA LS was administered subcutaneously once a week (D35, D42, D49, D56, D63, and D70), while ETV was administered once a day until D70. The observation period continued after discontinuation until D91.
Plasma from experimental mice was collected by venous blood sampling, and then qPCR was used to quantitatively detect the level of HBV DNA in the plasma of the mice. […]

`C=C1[C@H](CO)[C@@H](O)C[C@@H]1n1cnc2c(=O)[nH]c(N)nc21` [ETV, entecavir]: the “reduction of mean viral titre at the end of the study (D91) compared to the starting point of treatment (D28)” value (21 days post-discontinuation, afuco-A14 GA LS 10 mg/kg s.c., ETV 0.1 mg/kg oral) was found to be 7.15 fold. Also, for the setting “treatment D28 to D70, afuco-A14 GA LS 10 mg/kg s.c. once a week, ETV 0.1 mg/kg oral once a day, compared to control group (saline)”, the “decrease of viral DNA levels at the final dose (D70)” value is reported as approximately 436 fold.
